This experiment has as its system rats subjected to volume-controlled hemorrhagic shock. In words: Survival of rats subjected to volume-controlled hemorrhagic shock. In kind it is in vivo, rat. An excerpt: Surgical procedures to obtain vascular access. All study protocols using rats followed the guidelines for the use of experimental animals of the US National Institutes of Health and were approved by the Institutional Animal Care and Use Committee at the University of Pittsburgh.
Male specific pathogen-free Sprague Dawley rats (CHARLES RIVER LABORATORIES, Wilmington, Mass.), weighing 150-250 g, were housed in a temperature-controlled environment with a 12-h light/dark cycle. The rats had free access to food and water. For experiments, rats were anesthetized with intramuscular ketamine HCl (30 mg/kg) and intraperitoneal sodium pentobarbital (35 mg/kg). Animals were kept in a supine position during the experiments. Lidocaine (0.5 ml of a 0.5% solution) was injected subcutaneously to provide local anesthesia at surgical cut-down sites. In order to secure the airway, a tracheotomy was performed and polyethylene tubing (PE 240; BECTON-DICKINSON, Sparks, Md.) was introduced into the trachea. Animals were allowed to breathe spontaneously.
The right femoral artery was cannulated with polyethylene tubing (PE 10). This catheter was attached to a pressure transducer that allowed instantaneous measurement of mean arterial pressure (MAP) during the experiment. For experiments using the pressure-controlled hemorrhagic shock (HS) model, the right jugular vein was exposed, ligated distally, and cannulated with polyethylene tubing (PE 10) in order to withdraw blood. For experiments using the volume-controlled hemorrhagic shock (HS) model, the jugular catheter was used to infuse the resuscitation solution and the right femoral vein, which was cannulated with a silicon catheter (CHRONIC-CATH, NORFOLK MEDICAL, Skokie, Ill.), was used to withdraw blood.
All animals were instrumented within 30 min. Heparin (500 U/kg) was administered immediately after instrumentation through the femoral vein. Animals were placed in a thermal blanket to maintain their body temperature at 37° C. The positioning of the different devices aforementioned was checked postmortem.
Survival of rats subjected to volume-controlled hemorrhagic shock. Following surgical preparation and a 5-min stabilization period to obtain baseline readings, rats were subjected to hemorrhagic shock. Bleeding was carried out in 2 phases.
Initially, 21 ml/kg of blood was withdrawn over 20 min. Immediately thereafter, an additional 12.5 ml/kg of blood was withdrawn over 40 min. […]
Blood pressure was recorded continuously using a commercial strain-gauge transducer, amplifier, and monitor (S90603a, SPACELABS, Redmond, Wash.). […] Hemoglobin concentration [Hb], lactate and glucose concentration were determined using an auto-analyzer (Model ABL 725, […], Westlake, Ohio). […]

For `CC(C)C[C@@H](/C=C/[C@H](Cc1ccccc1)C(=O)N1CCC[C@H]1C(=O)N[C@H](C(=O)N[C@@H](CCCNC(=O)OCc1ccccc1)C(=O)NC1CC(C)(C)N([O])C(C)(C)C1)C(C)C)NC(=O)OC(C)(C)C` [XJB-5-131], under “2 μmol/kg i.v.”, the “rats surviving longer than 3 hours after completion of the hemorrhage protocol” value is “Three of the six”. The “survival versus vehicle-treated rats” value (2 μmol/kg i.v. infusion during last 20 min of hemorrhage, no resuscitation) is listed as “survived significantly longer”. Besides, the “rats surviving the whole 6 hour post-bleeding observation period” value (2 μmol/kg i.v., six rats) is “one”. Moreover, the “beneficial dose, times smaller than the TEMPOL dose of previous studies” value (~0.1 mg/kg versus TEMPOL 30 mg/kg bolus+30 mg/kg per h) is “about 300 fold”.
